The text below walks through data of article PMC8131842, “Therapeutic Potential of Vasoactive Intestinal Peptide and its Derivative Stearyl-Norleucine-VIP in Inflammation-Induced Osteolysis” (Frontiers in Pharmacology, 2021).

The subject of data set [1] is Primary murine macrophages/preosteoclasts. The data set can be described thus: MTT viability assay. The format is cell-based, mouse. The note with it: 10^-6 M, 20 ng/ml M-CSF, 1, 3 and 5 days of treatment, N=5. As for the experimental part:
MTT assay. For proliferation assay, macrophages were plated (4000 cells/well) into 96-well plate with standard medium supplemented with 20 ng of M-CSF. Cells were treated as indicated with either TiP, SNV, VIP (10^−6 M) or vehicle at first day of incubation. Cells viability was determined using dimethylthiazol-diphenyl-tetrazolium-bromide (MTT) after 1, 3 or 5 days. MTT was added to a final concentration of 5 mg/ml and incubated for 4 h at 37°C. After complete solubilization of the die in DMSO, plates were read at 570 nm in a colorimetric plate reader.
FIGURE 4 VIP and SNV alleviate the osteoclastogenic effect of TiP-induced inflammation. (A) Primary BMDM were exposed to TiP and RNA was collected after 24 h. mRNA expression are presented as Mean±SD fold change versus Control. * p<0.05 vs. Control. (B-D) Primary murine preosteoclasts were cultured in 20 ng/ml M-CSF and 50 ng/ml RANKL for 48 h. Conditioned medium from macrophages (Control) and macrophages exposed to Ti particles (Ti, as in A) was then added together with 10^-6M of VIP or SNV (or saline) for 48 h before TRAP staining. Data are Mean±SD for osteoclast % surface area (B) and number per well (C). (D) Representative images all acquired at a 4x original magnification. The scale bar for all images is in the upper left panel. n=8, #p<0.05 vs. Control; *p<0.05 vs. Ti, ANOVA. […]
A general note: Formazan colour is commonly taken as a measure of viable cells.

The test system of data set [2] is rats. The data set can be described thus: Study 001–1 acute subcutaneous toxicity in rats. The format is in vivo, rat. The method, then:
(§1) Toxicology. We performed toxicology studies for SNV that consisted of acute subcutaneous, intravenous and oral toxicity in rats, acute dermal toxicity in rabbits, skin sensitization using adjuvant and patch test in guinea pigs, and single and repeated (for 13 weeks) dose toxicity studies in rats. The latter was a 90-days repeated dose toxicity study, consisting of SNV once a day at three different doses to the penis and vagina of male and female rats, respectively. The compound was tested for the treatment of erectile dysfunction. The active dose (7 µg SNV) was chosen as the lowest dose for the study. The highest dosage group in the repeated dose toxicity study received 3,500 µg ([Gozes et al., 1994]). For study 001 (parts 1 through 3), the 1× dose consisted of 0.5 mg SNV dissolved in 7.1 ml vehicle (3.55 ml 10% Sefsol [glycerin monocaprylate] + 3.55 ml isopropanol) and 100µl/animal were administered; the 1000X dose consisted of 91 mg SNV dissolved in 1.3 ml vehicle (0.65 ml 10% Sefsol +0.65 ml isopropanol) and 100µl/animal were administered. For studies 002 through 004, the indicated doses of SNV (Table 1) were dissolved in 0.25 ml 10% Sefsol +0.25 ml 40% isopropanol (vehicle). The methodology for each of the toxicology studies is detailed in Table 1.

A further data set deals with Guinea pigs. The data set can be described thus: Study 003 skin sensitization: adjuvant and patch test. The format is in vivo, guinea pig. Conditions: SNV 7 mg/animal (1000X). As for the experimental part: as §1
In data set [3] the test system is rats. The data set can be described thus: Study 004–1 repeated dose toxicity in rats: a 13-weeks study. The format is in vivo, rat. The method, then: as §1
The study named 004-1, was the most protracted and detailed toxicology study. We carried it out in rats as a repeated dose toxicity study on target external organs, the penis and the vagina. The structure of the study included a detailed pathological evaluation of all body organs.

The mark [4] stands for this setting: subcutaneous, 7 mg/rat (1000X, group 4).
[5] abbreviates: daily topical for 13 weeks, all doses.

Turning to “Stearyl–HSDAVFTDNYTRLRKQ-Nle-AVKKYLNSILN-NH2 [SNV, Stearyl-norleucine-VIP, lipophilic VIP derivative with N-terminal stearic acid and norleucine in place of methionine at position 17]”, the “Viability of the cells (MTT, optical density)” value in data set [1] is recorded as “neither VIP nor SNV affected the viability”. Also, in the data set with rats [2] (S.D. rats, 6 males + 6 females per group, single injection close to penile or vaginal tissue, 14 observation days, 7 mg/rat = maximal practical dose), the “Acute median lethal subcutaneous dose” value was “Under the conditions of this study, the acute median lethal subcutaneous dose of SNV was found to be greater the 7 mg/rat, which is the maximal practical dose”. The Mortality result is “None” in the data set with rats [2] (subcutaneous, 7 µg/rat (1×), 14 observation days); “None” with rats [2] (subcutaneous, 7 mg/rat (1000X), 14 observation days); “None” in the data set on Guinea pigs (adjuvant and patch test, daily applications for 3 days); “None. Only one death took place in a male from the low dose group due to massive abdominal hemorrhage caused by a nephroblastoma” with rats [3] (daily topical for 13 weeks, 7 µg/rat (low dose)); “None. Only one death took place in a male from the low dose group due to massive abdominal hemorrhage caused by a nephroblastoma” with rats [3] (daily topical for 13 weeks, 0.7 mg/rat); “None. Only one death took place in a male from the low dose group due to massive abdominal hemorrhage caused by a nephroblastoma” in the data set with rats [3] (daily topical for 13 weeks, 3.5 mg/rat). In addition, the “Reactions: body weight” value with rats [2] (setting [4]) is on record as “significant weight loss until 8th day, returning to original weight on day 12–14”. Besides, the “Reactions: diarrhea” value with rats [2] (setting [4]) was “Diarrhea in 2 males of group 4 (1000X) 5–24 after injection, lasting for 2 days”. Moreover, the “Reactions: skin necrosis” value in the data set on rats [2] (subcutaneous, affected treatment group(s) not specified) was “Necrosis of abdominal (male only) or penile skin on day 13–14 after injection”. Also, the “Skin sensitization, conclusion” value in the data set with Guinea pigs (adjuvant and patch test) was “The study was designed to assess the degree of skin sensitization resulting from intradermal Freund’s complete adjuvant and patch application of SNV. The study showed that both SNV and vehicle alone have no skin sensitization properties”. In addition, in the data set on Guinea pigs (intradermal Freund's complete adjuvant and patch application, daily applications for 3 days, 3 males + 3 females per group), the Skin reactions entry is “only slight erythema and edema within the application site”. The “Clinical signs (penile edema, erythema and staining): relation to dose” value in the data set with rats [3] (daily topical for 13 weeks, 7 µg, 0.7 mg and 3.5 mg/rat) is “not dose-related”. In addition, in the data set on rats [3] (daily topical for 13 weeks, all dosages), the “Pathological evaluation of all body organs (macroscopic and microscopic changes)” value was “No drug-related macroscopic or microscopic changes”. The “Hematology and clinical chemistry parameters” value in the data set on rats [3] (setting [5]) was “No dose related or sex related biologically meaningful treatment effects”. Further, the “Serious adverse effects, conclusion” value with rats [3] (setting [5]) was “did not cause any serious adverse effects at any of the doses tested”. The Treatment-related adverse effects result with rats [3] (daily topical on the sex organs for 13 weeks, 7 µg, 0.7 mg and 3.5 mg/rat, SPF S.D. rats, 10 males + 10 females per group) was “No related adverse effects were detected throughout the study”.
